Assay results from patent US7405222B2, “Methods and compositions for treatment of erectile dysfunction” (Modular Properties, Ltd., priority 2002, dated 2008).
Blank lines part the entries; values can stand above or below the molecule they belong to.

Experiments:
[1] = in vivo; cited from earlier work
[2] = system: male erectile dysfunction; settings: in vivo; cited from earlier work
[3] = Text: Suitable pharmaceutical vehicles are well known to those skilled in the art and are described in several manuals, including Remington's Pharmaceutical Sciences, 15th edition. […] Similarly, formulations containing PGE1, papaverine, phentolamine and atropine, should be kept under refrigeration.
[4] = system: male erectile dysfunction; settings: monotherapy or combination as stated; cited from earlier work
[5] = system: male erectile dysfunction; settings: intranasal; cited from earlier work

- stability in storage [3]: not stable in water at room temperature
SMILES: CCCCC[C@H](O)/C=C/[C@H]1[C@H](O)CC(=O)[C@@H]1CCCCCCC(=O)O [PGE1, Prostaglandin E1]
- half life [1]: short half life compared with papaverine and phentolamine
- subjects with significant pain [2]: up to 40%

SMILES: Cc1ccc(N(CC2=NCCN2)c2cccc(O)c2)cc1 [Phentolamine, phentolamine]
- erectile response [4]: does not reliably produce an erection sufficient for intercourse

SMILES: COc1ccc(Cc2nccc3cc(OC)c(OC)cc23)cc1OC [papaverine]
- erectile response [4]: unpredictable response

SMILES: CCCc1nn(C)c2c(=O)[nH]c(-c3cc(S(=O)(=O)N4CCN(C)CC4)ccc3OCC)nc12 [sildenafil]
- time to response in producing an erection [5]: within five minutes
